Assay results from patent US9688625B2, “Amorphous form of a thiocolchicine derivative” (priority 2014, dated 2017).

Columns and labels:
Assay type in all cases: physicochemical
[1] = Chemical stability on storage, analyses by HPLC; conditions: for variation in the chemical composition: after one month at 40±2° C./75±5% relative humidity; for time for which chemically stable (none impurity departed from its initial value): HPLC
Method: The analyses were performed by HPLC.

[2] = Physical stability on storage (features of FIG. 1-4 maintained); conditions: 40±2° C./75±5 relative humidity
Method: The amorphous form of compound (I) has also been found physically stable at 25±2° C./60±5% relative humidity for at least three years and at 40±2° C./75±5 relative humidity for at least 6 months, as it maintained the characteristics features reported in FIG. 1-4.

[3] = Solubility (comparison of solid forms); conditions: compared with other crystalline forms

SMILES | variation in the chemical composition [1] | time for which chemically stable (none impurity departed from its initial value) ([1]; 25±2° C./60±5% relative humidity) | time for which chemically stable (none impurity departed from its initial value) ([1]; 40±2° C./75±5% relative humidity) | time for which physically stable (maintained features of FIG. 1-4) [2] | solubility in water [3]
COc1cc2c(c(OC)c1OC)-c1ccc(SC)c(=O)cc1[C@@H](NC(=O)CCNC(=O)N[C@H]1CCc3cc(OC)c(OC)c(OC)c3-c3ccc(SC)c(=O)cc31)CC2 (single isomer, unassigned) [crystalline IDN 5404 obtained in Example 2] [reference compound] | 7% |  |  |  | 
COc1cc2c(c(OC)c1OC)-c1ccc(SC)c(=O)cc1[C@@H](NC(=O)CCNC(=O)N[C@H]1CCc3cc(OC)c(OC)c(OC)c3-c3ccc(SC)c(=O)cc31)CC2 [amorphous form of compound (I), IDN 5404] |  | at least three | at least 6 moths | at least 6 months | more soluble in water than other crystalline forms
COc1cc2c(c(OC)c1OC)-c1ccc(SC)c(=O)cc1[C@@H](NC(=O)CCNC(=O)N[C@H]1CCc3cc(OC)c(OC)c(OC)c3-c3ccc(SC)c(=O)cc31)CC2 (single isomer, unassigned) [crystalline IDN 5404 obtained in Example 3] [reference compound] | 4.1% |  |  |  | 
